# Laboratory results as given in PubChem BioAssay (NCI).
#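 96-well plates; 48 h exposure; 5 concentrations. Endpoints by linear interpolation between flanking doses. Not reached: highest tested concentration assigned. The concentration for 50% growth inhibition is given as GI50. TGI: concentration producing complete growth inhibition.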
# Key:
# Assay in all cases: NCI-60 cell line screen, 48 h
# [1] = system: MDA-MB-231 breast
# [2] = system: HT29 colon
# [3] = system: OVCAR-3 ovarian
# [4] = system: TK-10 renal
# [5] = system: M14 melanoma
# [6] = system: SW-620 colon
# [7] = system: UACC-257 melanoma
# [8] = system: EKVX NSCLC
# [9] = system: NCI-H226 lung
# [10] = system: HCT-116 colon
# [11] = system: A498 renal
# [12] = system: SNB-19 CNS
# [13] = system: IGROV1 ovarian
# [14] = system: RXF 393 renal
# [15] = system: CCRF-CEM leukemia
# [16] = system: SNB-75 CNS
# [17] = system: NCI-H522 lung
# [18] = system: SF-295 CNS
# [19] = system: CAKI-1 renal
# [20] = system: 786-0 renal
# [21] = system: OVCAR-4 ovarian
# [22] = system: KM12 colon
# [23] = system: RPMI-8226 leukemia
# [24] = system: BT-549 breast
# [25] = system: MOLT-4 leukemia
# [26] = system: MALME-3M melanoma
# [27] = system: HL-60(TB) leukemia
# [28] = system: UO-31 renal
# [29] = system: MDA-MB-435
# [30] = system: NCI-H23 lung
# [31] = system: OVCAR-8 ovarian
# [32] = system: SK-MEL-28 melanoma
# [33] = system: HCC-2998 colon
# [34] = system: T-47D breast
# [35] = system: U251 CNS
# [36] = system: SN12C renal
# [37] = system: SF-268 CNS
# [38] = system: OVCAR-5 ovarian
# [39] = system: SK-MEL-5 melanoma
# [40] = system: HCT-15 colon
# [41] = system: LOX IMVI melanoma
# [42] = system: ACHN renal
# [43] = system: SK-OV-3 ovarian
# [44] = system: MCF7 breast
# [45] = system: HS 578T breast
# [46] = system: SR leukemia
# [47] = system: COLO 205 colon
# [48] = system: NCI/ADR-RES ovarian
# [49] = system: SK-MEL-2 melanoma
# [50] = system: HOP-62 NSCLC
# [51] = system: SF-539 CNS
# [52] = system: NCI-H460 lung
# [53] = system: HOP-92 NSCLC
# [54] = system: DU-145 prostate
# [55] = system: PC-3 prostate
# [56] = system: UACC-62 melanoma
smiles,measurement,setting,value
N#Cc1ccc2c(c1)C(=O)c1c-2n(CCCCl)c(=O)c2cc([N+](=O)[O-])ccc12,GI50,[1],77.5 µM
same,TGI,[1],> 100 µM
same,GI50,[2],7.93 µM
same,TGI,[2],> 100 µM
same,GI50,[3],8.77 µM
same,TGI,[3],> 100 µM
same,GI50,[4],42.9 µM
same,TGI,[4],> 100 µM
same,GI50,[5],4.64 µM
same,TGI,[5],> 100 µM
same,GI50,[6],0.801 µM
same,TGI,[6],> 100 µM
same,GI50,[7],> 100 µM
same,TGI,[7],> 100 µM
same,GI50,[8],50.4 µM
same,TGI,[8],> 100 µM
same,GI50,[9],9.1 µM
same,TGI,[9],89.9 µM
same,GI50,[10],1.82 µM
same,TGI,[10],> 100 µM
same,GI50,[11],22.8 µM
same,TGI,[11],55.3 µM
same,GI50,[12],3.39 µM
same,TGI,[12],> 100 µM
same,GI50,[13],3.95 µM
same,TGI,[13],53.3 µM
same,GI50,[14],11.9 µM
same,TGI,[14],37.7 µM
same,GI50,[15],0.589 µM
same,TGI,[15],10.7 µM
same,GI50,[16],3.51 µM
same,TGI,[16],11.5 µM
same,GI50,[17],3.07 µM
same,TGI,[17],24.3 µM
same,GI50,[18],4.21 µM
same,TGI,[18],> 100 µM
same,GI50,[19],18 µM
same,TGI,[19],> 100 µM
same,GI50,[20],2.46 µM
same,TGI,[20],7.88 µM
same,GI50,[21],60.8 µM
same,TGI,[21],> 100 µM
same,GI50,[22],> 100 µM
same,TGI,[22],> 100 µM
same,GI50,[23],3.44 µM
same,TGI,[23],20.6 µM
same,GI50,[24],2.28 µM
same,TGI,[24],23.5 µM
same,GI50,[25],1.34 µM
same,TGI,[25],5.26 µM
same,GI50,[26],24 µM
same,TGI,[26],> 100 µM
same,GI50,[27],11.4 µM
same,TGI,[27],29.9 µM
same,GI50,[28],2.61 µM
same,TGI,[28],> 100 µM
same,GI50,[29],> 100 µM
same,TGI,[29],> 100 µM
same,GI50,[30],4.81 µM
same,TGI,[30],17.6 µM
same,GI50,[31],20.6 µM
same,TGI,[31],> 100 µM
same,GI50,[32],41.1 µM
same,TGI,[32],> 100 µM
same,GI50,[33],12 µM
same,TGI,[33],> 100 µM
same,GI50,[34],2.65 µM
same,TGI,[34],> 100 µM
same,GI50,[35],1.63 µM
same,TGI,[35],16.4 µM
same,GI50,[36],5.93 µM
same,TGI,[36],> 100 µM
same,GI50,[37],1.49 µM
same,TGI,[37],> 100 µM
same,GI50,[38],65.4 µM
same,TGI,[38],> 100 µM
same,GI50,[39],5.07 µM
same,TGI,[39],71.5 µM
same,GI50,[40],58.4 µM
same,TGI,[40],> 100 µM
same,GI50,[41],2.28 µM
same,TGI,[41],14.8 µM
same,GI50,[42],1.91 µM
same,TGI,[42],6.59 µM
same,GI50,[43],5.29 µM
same,TGI,[43],24.7 µM
same,GI50,[44],0.38 µM
same,TGI,[44],> 100 µM
same,GI50,[45],41 µM
same,TGI,[45],> 100 µM
same,GI50,[46],0.178 µM
same,TGI,[46],1.7 µM
same,GI50,[47],> 100 µM
same,TGI,[47],> 100 µM
same,GI50,[48],6 µM
same,TGI,[48],> 100 µM
same,GI50,[49],16.9 µM
same,TGI,[49],54.1 µM
same,GI50,[50],2.55 µM
same,TGI,[50],14 µM
same,GI50,[51],2.62 µM
same,TGI,[51],10.5 µM
same,GI50,[52],0.395 µM
same,TGI,[52],> 100 µM
same,GI50,[53],5.06 µM
same,TGI,[53],23.1 µM
same,GI50,[54],2.74 µM
same,TGI,[54],23.9 µM
same,GI50,[55],19.1 µM
same,TGI,[55],> 100 µM
same,GI50,[56],1.13 µM
same,TGI,[56],9.96 µM
